Experimental data published in patent US8389680B2, “Treatment of Aspergillus infections with alpha thymosin peptides” (SciClone Pharmaceuticals, Inc., priority 2003, dated 2013).
Entries after “also recorded” stand apart in the source; their conditions may differ.

How the values were obtained:
[1] = system: MyD88-dependent pathway; assay: Cytokine production by DCs of MyD88-deficient mice; type: cell-based
Method: Female, 8- to 10-weeks old, BALB/c and C57BL6 mice were from Charles River. NOD/SCID were from The Jackson. Breeding pairs of homozygous TLR2-, TLR9- and MyD88-deficient mice, raised on C57BL6 background, and of homozygous IFN-gamma- and IL-4-deficient mice, raised on BALB/c background, were bred under specific-pathogen free conditions. For phagocytosis, DCs were pre-exposed to 100 ng/ml TA1 for 60 minutes and subsequently incubated at 37° C. with Aspergillus conidia for an additional 60 minutes. The percentage of internalization was calculated and photographs were taken. In assessing functional maturation and cytokine determination, purified DCs were resuspended in Iscove's medium (with no serum but with polymixin B, to avoid non-specific activation by serum components and endotoxin) and pulsed with 100 ng/ml TA1 for 24 hours either alone or together with TLR ligands or unopsonized Aspergillus conidia. The levels of TNF-alpha, IL-10, IL-12 p70, IFN-alpha and IL-8 in culture supernatants were determined by Kit ELISAs. The detection limits (pg/ml) of the assays were <3 (human) and <32 (murine) for TNF-alpha, <12 (murine) and <5 (human) for IL-10, <16 (murine) and <3 (human) for IL-12 p70 and <25 (human) IL-8. For human IFN-alpha <3 ng/ml. For enumeration of cytokine-producing cells, an ELISPOT assay was used on purified CD4^+ T cells and DCs from lungs.

[2] = system: A. fumigatus; assay: Local fungal growth after Aspergillus infection of TLR2-, TLR9- or MyD88-deficient mice; type: in vivo
Description: Female, 8- to 10-weeks old, BALB/c and C57BL6 mice were from Charles River. NOD/SCID were from The Jackson. Breeding pairs of homozygous TLR2-, TLR9- and MyD88-deficient mice, raised on C57BL6 background, and of homozygous IFN-gamma- and IL-4-deficient mice, raised on BALB/c background, were bred under specific-pathogen free conditions.
For infection with A. fumigatus, mice were intranasally injected for 3 consecutive days with a suspension of 2×10^7 conidia/20 microliter saline. For the quantification of fungal growth in the lungs, the chitin assay was used. The chitin content was expressed as micrograms of glucosamine per organ. The glucosamine content of lungs from uninfected mice was used as a negative control ranging between 0.80 and 2.25 microgram glucosamine/organ. For histological analysis, lungs were excised and immediately fixed in formalin. Sections (3 to 4 micron) of paraffin-embedded tissues were stained with the periodic acid-Schiff procedure. Thymosin alpha 1 (TA1) and the scrambled polypeptide are as purified sterile lyophilized acetylated polypeptides with endotoxin levels less than 0.03 pg/ml, by a standard limulus lysate assay. The sequences were as follows: Ac-[…]O (Thymosin alpha 1, SEQ ID NO.: 1) and Ac-[…]OH ([…]). Their lyophilized powders were reconstituted in sterile water.
The treatments were as follows; in BMT-mice, TA1, at different doses administered intraperitoneally, sthymosin alpha 1, 400 microgram/kg administered intraperitoneally or human recombinant G-CSF 250 microgram/kg administered intravenously, were given daily beginning the day of the BM infusion, in concomitance with the infection and continuing for an additional 3 days. Amphotericin B was given daily for 3 days in concomitance with the infection, at a dose of 4000 microgram/kg, administered intraperitoneally. This dose would cure IA in cyclophosphamide-treated mice. Cyclophosphamide, 150 mg/kg administered intraperitoneally, was given a day before the infection. […]

[3] = system: lymphocytes and neutrophils; assay: Myeloid and Th1 cell recovery in BMT mice with IA; type: in vivo
Description: The treatments were as follows; in BMT-mice, TA1, at different doses administered intraperitoneally, sthymosin alpha 1, 400 microgram/kg administered intraperitoneally or human recombinant G-CSF 250 microgram/kg administered intravenously, were given daily beginning the day of the BM infusion, in concomitance with the infection and continuing for an additional 3 days. Amphotericin B was given daily for 3 days in concomitance with the infection, at a dose of 4000 microgram/kg, administered intraperitoneally. This dose would cure IA in cyclophosphamide-treated mice. Cyclophosphamide, 150 mg/kg administered intraperitoneally, was given a day before the infection. In cyclophosphamide-treated mice, 400 microgram/kg TA1 was given intraperitoneally for 5 consecutive days beginning the day of the infection. Cell surface phenotype was assessed by reacting samples with FITC- or PE-conjugated rat anti-mouse antibodies. Unrelated hisotype matched antibodies were used as control. The levels of TNF-alpha, IL-10, IL-12 p70, IFN-alpha and IL-8 in culture supernatants were determined by Kit ELISAs. The detection limits (pg/ml) of the assays were <3 (human) and <32 (murine) for TNF-alpha, <12 (murine) and <5 (human) for IL-10, <16 (murine) and <3 (human) for IL-12 p70 and <25 (human) IL-8. For human IFN-alpha <3 ng/ml. For enumeration of cytokine-producing cells, an ELISPOT assay was used on purified CD4^+ T cells and DCs from lungs. Proliferation of lung CD4^+ T lymphocytes stimulated with 10 microgram/ml Con A or heat inactivated conidia in the presence of lung DCs, was assessed by labeling with CFSE 5(6)-carboxyfluorescein diacetate succinimidyl ester.

[4] = system: murine DCs; assay: RT-PCR of TLR expression on DCs; type: cell-based
Method: Synthesis and PCR of cDNA were performed with forward and reverse PCR primers and the cycles used for murine and human TLRs and HPRT. The synthesized PCR products were separated by electrophoresis on 2% agarose gel and visualized by ethidium bromide staining.

[5] = system: p38 and NF-kB; assay: Analysis of p38 and NF-kB activation on lung DCs; type: cell-based, murine; details: peptide alone, 20 minutes
Method: P38 and NF-kB were activated on lung DCs by exposure for 20 minutes at 37° C. to Aspergillus conidia and/or 100 ng/ml TA1. Blots of cell lysates were incubated with rabbit polyclonal Abs recognizing either the unphosphorylated form of p38 MAPK, or the double-phosphorylated (Thr-180/Tyr-182) p38 MAPK, or Abs specific for the Rel A, 65 kDa DNA binding subunit of human NF-kB followed by horseradish peroxidase-conjugated goat anti-rabbit IgG, as per manufacturer's instructions. Blots were developed with an Enhanced Chemiluminescence detection kit. Bands were visualized after exposure of the blots to a Kodak RX film. To ensure similar protein loading in each lane, the phospho blots were stripped and the membranes were reprobed with Abs against p38 and NF-kB.

[6] = BMT mice, cytofluorimetric analysis
[7] = combined exposure to conidia and peptide

In the case of “Ac-Ser-Asp-Ala-Ala-Val-Asp-Thr-Ser-Ser-Glu-Ile-Thr-Thr-Lys-Asp-Leu-Lys-Glu-Lys-Lys-Glu-Val-Glu-Glu-Ala-Glu-Asn-O (Ac-SDAAVDTSSEITTKDLKEKKEVEEAEN-OH) [TA1, naturally occurring thymic peptide]”, the IL-10 production [1] is reported as “dramatically ablated”, the “IL-12 p70 production” value ([1]; TA1 and conidia) is reported as “dramatically ablated” and the fungal growth ([2]; MyD88-deficient mice) is reported as “not impaired”. The fungal growth ([2]; TLR2-deficient mice) was “similarly impaired”, the fungal growth ([2]; TLR9-deficient mice) was “similarly impaired” and the “frequency of Th1 cells (producing IFN-gamma)” value ([3]; BMT mice treated with TA1) was “increased; also recorded: higher”. For the same substance, the “frequency of Th2 cells (producing IL-4)” value ([3]; BMT mice treated with TA1) was “decreased; also recorded: lower”, the “function of lung CD4+ T lymphocytes (antigen-specific proliferation and IFN-gamma production)” value ([3]; BMT mice treated with TA1) was “functionally active” and the “number of lung CD4+ cells” value [3, 6] was “increase; also recorded: significantly increased”. The “number of lung CD8+ cells” value [3, 6] was “increase; also recorded: significantly increased”, the “number of lung neutrophils” value [3, 6] was “significantly increased” and the total neutrophils ([3]; BMT mouse model, TA1 treatment after Aspergillus infection) was “increase”. The “absolute number of circulating lymphocytes” value ([3]; after TA1 treatment) was “significantly increases”, the “absolute number of circulating neutrophils” value ([3]; after TA1 treatment) was “significantly increases” and the “expression of TLR5” value ([4]; combined exposure to conidia and TA1) was “inhibited”. For the same substance, the “expression of TLR2” value [4, 7] was “still activated”, the “expression of TLR9” value [4, 7] was “still activated” and the “expression of TLR2” value ([4]; peptide alone) was “strongly activates”. For the same substance, the “expression of TLR5” value ([4]; peptide alone) was “strongly activates”, the “expression of TLR9” value ([4]; peptide alone) was “strongly activates” and the p38 phosphorylation [5] was “induced”.
